PubChem BioAssay (NCI)
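Test compounds were applied to cells in 96-well plates for 48 hours at 5 doses. TGI: concentration producing complete growth inhibition.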

Experiments:
Assay in all cases: inhibition of tumour cell growth, NCI panel, 48 h
SNB-19 CNS = system: SNB-19 CNS
PC-3 prostate = system: PC-3 prostate
UACC-62 melanoma = system: UACC-62 melanoma
NCI/ADR-RES ovarian = system: NCI/ADR-RES ovarian
HCC-2998 colon = system: HCC-2998 colon
HCT-116 colon = system: HCT-116 colon
RXF 393 renal = system: RXF 393 renal
786-0 renal = system: 786-0 renal
A498 renal = system: A498 renal
SF-295 CNS = system: SF-295 CNS
NCI-H23 lung = system: NCI-H23 lung
SNB-75 CNS = system: SNB-75 CNS
OVCAR-4 ovarian = system: OVCAR-4 ovarian
OVCAR-5 ovarian = system: OVCAR-5 ovarian
SN12C renal = system: SN12C renal
TK-10 renal = system: TK-10 renal
MDA-N = system: MDA-N
CAKI-1 renal = system: CAKI-1 renal
HT29 colon = system: HT29 colon
MDA-MB-435 = system: MDA-MB-435
LOX IMVI melanoma = system: LOX IMVI melanoma
A549 NSCLC = system: A549 NSCLC
CCRF-CEM leukemia = system: CCRF-CEM leukemia
K-562 leukemia = system: K-562 leukemia
SK-MEL-2 melanoma = system: SK-MEL-2 melanoma
T-47D breast = system: T-47D breast
EKVX NSCLC = system: EKVX NSCLC
M14 melanoma = system: M14 melanoma
UACC-257 melanoma = system: UACC-257 melanoma
RPMI-8226 leukemia = system: RPMI-8226 leukemia
MCF7 breast = system: MCF7 breast
COLO 205 colon = system: COLO 205 colon
U251 CNS = system: U251 CNS
SF-539 CNS = system: SF-539 CNS
UO-31 renal = system: UO-31 renal
HS 578T breast = system: HS 578T breast
ACHN renal = system: ACHN renal
MALME-3M melanoma = system: MALME-3M melanoma
SK-MEL-5 melanoma = system: SK-MEL-5 melanoma
OVCAR-8 ovarian = system: OVCAR-8 ovarian
NCI-H522 lung = system: NCI-H522 lung
OVCAR-3 ovarian = system: OVCAR-3 ovarian
IGROV1 ovarian = system: IGROV1 ovarian
SR leukemia = system: SR leukemia
SK-MEL-28 melanoma = system: SK-MEL-28 melanoma
HOP-62 NSCLC = system: HOP-62 NSCLC
KM12 colon = system: KM12 colon
SF-268 CNS = system: SF-268 CNS
HOP-92 NSCLC = system: HOP-92 NSCLC
BT-549 breast = system: BT-549 breast
DU-145 prostate = system: DU-145 prostate
HL-60(TB) leukemia = system: HL-60(TB) leukemia
HCT-15 colon = system: HCT-15 colon
SW-620 colon = system: SW-620 colon
MDA-MB-231 breast = system: MDA-MB-231 breast
NCI-H226 lung = system: NCI-H226 lung
NCI-H460 lung = system: NCI-H460 lung
SK-OV-3 ovarian = system: SK-OV-3 ovarian

Structure (SMILES): COc1ccccc1NC(=O)CC(=O)N1N=C(C)C(N=Nc2ccc(C(=O)O)cc2)C1=O (centres undefined)
- TGI (SNB-19 CNS): > 100 µM
- TGI (PC-3 prostate): > 100 µM
- TGI (UACC-62 melanoma): > 100 µM
- TGI (NCI/ADR-RES ovarian): > 100 µM
- TGI (HCC-2998 colon): > 100 µM
- TGI (HCT-116 colon): > 100 µM
- TGI (RXF 393 renal): > 100 µM
- TGI (786-0 renal): > 100 µM
- TGI (A498 renal): > 100 µM
- TGI (SF-295 CNS): > 100 µM
- TGI (NCI-H23 lung): > 100 µM
- TGI (SNB-75 CNS): 6.06 µM
- TGI (OVCAR-4 ovarian): > 100 µM
- TGI (OVCAR-5 ovarian): > 100 µM
- TGI (SN12C renal): > 100 µM
- TGI (TK-10 renal): > 100 µM
- TGI (MDA-N): > 100 µM
- TGI (CAKI-1 renal): > 100 µM
- TGI (HT29 colon): > 100 µM
- TGI (MDA-MB-435): > 100 µM
- TGI (LOX IMVI melanoma): > 100 µM
- TGI (A549 NSCLC): > 100 µM
- TGI (CCRF-CEM leukemia): > 100 µM
- TGI (K-562 leukemia): > 100 µM
- TGI (SK-MEL-2 melanoma): > 100 µM
- TGI (T-47D breast): > 100 µM
- TGI (EKVX NSCLC): > 100 µM
- TGI (M14 melanoma): > 100 µM
- TGI (UACC-257 melanoma): > 100 µM
- TGI (RPMI-8226 leukemia): > 100 µM
- TGI (MCF7 breast): > 100 µM
- TGI (COLO 205 colon): > 100 µM
- TGI (U251 CNS): > 100 µM
- TGI (SF-539 CNS): > 100 µM
- TGI (UO-31 renal): > 100 µM
- TGI (HS 578T breast): > 100 µM
- TGI (ACHN renal): > 100 µM
- TGI (MALME-3M melanoma): > 100 µM
- TGI (SK-MEL-5 melanoma): > 100 µM
- TGI (OVCAR-8 ovarian): > 100 µM
- TGI (NCI-H522 lung): > 100 µM
- TGI (OVCAR-3 ovarian): > 100 µM
- TGI (IGROV1 ovarian): > 100 µM
- TGI (SR leukemia): > 100 µM
- TGI (SK-MEL-28 melanoma): > 100 µM
- TGI (HOP-62 NSCLC): > 100 µM
- TGI (KM12 colon): > 100 µM
- TGI (SF-268 CNS): > 100 µM
- TGI (HOP-92 NSCLC): > 100 µM
- TGI (BT-549 breast): > 100 µM
- TGI (DU-145 prostate): > 100 µM
- TGI (HL-60(TB) leukemia): > 100 µM
- TGI (HCT-15 colon): > 100 µM
- TGI (SW-620 colon): > 100 µM
- TGI (MDA-MB-231 breast): > 100 µM

Structure (SMILES): C/C=C(/COC(C)=O)C(=O)OC1C=C(C=O)C(C)(C)C=C1C (centres undefined)
- TGI (SNB-19 CNS): > 100 µM
- TGI (PC-3 prostate): > 100 µM
- TGI (UACC-62 melanoma): > 100 µM
- TGI (NCI/ADR-RES ovarian): > 100 µM
- TGI (HCC-2998 colon): > 100 µM
- TGI (HCT-116 colon): > 100 µM
- TGI (786-0 renal): > 100 µM
- TGI (A498 renal): > 100 µM
- TGI (SF-295 CNS): > 100 µM
- TGI (NCI-H23 lung): > 100 µM
- TGI (SNB-75 CNS): > 100 µM
- TGI (OVCAR-4 ovarian): > 100 µM
- TGI (OVCAR-5 ovarian): > 100 µM
- TGI (SN12C renal): > 100 µM
- TGI (TK-10 renal): > 100 µM
- TGI (MDA-N): > 100 µM
- TGI (CAKI-1 renal): > 100 µM
- TGI (HT29 colon): > 100 µM
- TGI (MDA-MB-435): > 100 µM
- TGI (LOX IMVI melanoma): > 100 µM
- TGI (A549 NSCLC): > 100 µM
- TGI (CCRF-CEM leukemia): > 100 µM
- TGI (NCI-H226 lung): > 100 µM
- TGI (K-562 leukemia): > 100 µM
- TGI (SK-MEL-2 melanoma): > 100 µM
- TGI (T-47D breast): > 100 µM
- TGI (EKVX NSCLC): > 100 µM
- TGI (M14 melanoma): > 100 µM
- TGI (NCI-H460 lung): > 100 µM
- TGI (UACC-257 melanoma): > 100 µM
- TGI (MCF7 breast): > 100 µM
- TGI (COLO 205 colon): > 100 µM
- TGI (U251 CNS): > 100 µM
- TGI (SF-539 CNS): > 100 µM
- TGI (UO-31 renal): > 100 µM
- TGI (HS 578T breast): > 100 µM
- TGI (ACHN renal): > 100 µM
- TGI (MALME-3M melanoma): > 100 µM
- TGI (SK-MEL-5 melanoma): > 100 µM
- TGI (OVCAR-8 ovarian): > 100 µM
- TGI (NCI-H522 lung): > 100 µM
- TGI (IGROV1 ovarian): > 100 µM
- TGI (SR leukemia): > 100 µM
- TGI (SK-MEL-28 melanoma): > 100 µM
- TGI (SK-OV-3 ovarian): > 100 µM
- TGI (KM12 colon): > 100 µM
- TGI (SF-268 CNS): > 100 µM
- TGI (HOP-92 NSCLC): > 100 µM
- TGI (BT-549 breast): > 100 µM
- TGI (DU-145 prostate): > 100 µM
- TGI (HL-60(TB) leukemia): > 100 µM
- TGI (HCT-15 colon): > 100 µM
- TGI (SW-620 colon): > 100 µM
- TGI (MDA-MB-231 breast): > 100 µM
